According to ChEMBL document CHEMBL1154146, “A 2-substituted prodiginine, 2-(p-hydroxybenzyl)prodigiosin, from Pseudoalteromonas rubra” (J Nat Prod, 2008):
pIC50: −log10 of the molar value. Activity calls are given as the source filed them. The rule behind the calls is not given here.

Assays:
[1] = target: T1, DNA topoisomerase 1 (Homo sapiens) (UniProt P11387); test: Inhibition of human topoisomerase 1
T1 sequence (whole entry): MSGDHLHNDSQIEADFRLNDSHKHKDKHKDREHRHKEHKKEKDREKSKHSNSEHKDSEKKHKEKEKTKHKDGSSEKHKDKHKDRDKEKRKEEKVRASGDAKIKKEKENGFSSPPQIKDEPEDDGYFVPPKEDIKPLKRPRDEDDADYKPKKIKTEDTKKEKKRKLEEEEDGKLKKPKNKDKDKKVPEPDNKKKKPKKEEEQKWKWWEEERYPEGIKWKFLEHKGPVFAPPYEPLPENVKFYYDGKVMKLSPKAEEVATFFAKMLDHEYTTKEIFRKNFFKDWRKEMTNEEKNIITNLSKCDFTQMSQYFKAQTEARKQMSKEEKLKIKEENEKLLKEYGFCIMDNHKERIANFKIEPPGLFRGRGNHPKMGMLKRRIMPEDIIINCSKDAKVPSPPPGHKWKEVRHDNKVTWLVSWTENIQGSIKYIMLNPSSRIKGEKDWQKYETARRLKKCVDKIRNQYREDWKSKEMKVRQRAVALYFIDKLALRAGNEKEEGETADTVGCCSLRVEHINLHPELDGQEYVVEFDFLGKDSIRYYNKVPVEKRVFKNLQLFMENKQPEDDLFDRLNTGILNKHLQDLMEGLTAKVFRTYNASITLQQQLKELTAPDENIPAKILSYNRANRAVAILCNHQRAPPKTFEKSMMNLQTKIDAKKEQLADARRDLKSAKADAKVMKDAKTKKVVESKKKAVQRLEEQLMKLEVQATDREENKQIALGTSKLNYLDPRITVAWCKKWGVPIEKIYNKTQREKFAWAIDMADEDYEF

SK-OV-3 = test: Cytotoxicity against human SKOV3 cells after 48 hrs by SRB assay; format: functional, cell-based; settings: SK-OV-3, 48 h

Structure (SMILES)	inhibition [1]	pIC50 (SK-OV-3)
CCCCCC1=C/C(=C/c2[nH]c(-c3ccc(Cc4ccc(O)cc4)[nH]3)cc2OC)N=C1C	Active	5.89
CCCCCC1=C/C(=C/c2[nH]c(-c3ccc[nH]3)cc2OC)N=C1C [PRODIGIOSIN]	Active	5.89
